Source: PubChem BioAssay (NCI)
“And” between values parts separate entries of the source, which are not always exact repeats. Equal entries are not always repeated.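 Briefly, cells in 96-well plates were exposed to five compound concentrations for 48 h, and endpoints were estimated by linear interpolation. GI50 marks 50% less growth. TGI: concentration producing complete growth inhibition.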

What was measured:
Test in all cases: NCI-60 cell line screen, 48 h
OVCAR-4 ovarian = test system: OVCAR-4 ovarian
LOX IMVI melanoma = test system: LOX IMVI melanoma
HOP-62 NSCLC = test system: HOP-62 NSCLC
SK-OV-3 ovarian = test system: SK-OV-3 ovarian
786-0 renal = test system: 786-0 renal
SN12C renal = test system: SN12C renal
OVCAR-8 ovarian = test system: OVCAR-8 ovarian
NCI-H460 lung = test system: NCI-H460 lung
T-47D breast = test system: T-47D breast
SR leukemia = test system: SR leukemia

Row | Structure (SMILES) | GI50 (OVCAR-4 ovarian) [µM] | TGI (OVCAR-4 ovarian) [µM] | GI50 (LOX IMVI melanoma) [µM] | TGI (LOX IMVI melanoma) [µM] | GI50 (HOP-62 NSCLC) [µM] | TGI (HOP-62 NSCLC) [µM] | GI50 (SK-OV-3 ovarian) [µM] | TGI (SK-OV-3 ovarian) [µM] | GI50 (786-0 renal) [µM] | TGI (786-0 renal) [µM] | GI50 (SN12C renal) [µM] | TGI (SN12C renal) | GI50 (OVCAR-8 ovarian) [µM] | TGI (OVCAR-8 ovarian) | GI50 (NCI-H460 lung) [µM] | TGI (NCI-H460 lung) [µM] | GI50 (T-47D breast) [µM] | TGI (T-47D breast) [µM] | GI50 (SR leukemia) [µM] | TGI (SR leukemia) [µM]
1 | Cn1c2c(c3ccc(Cl)c(Cl)c31)C(C#N)C1(CCNCC1)NC2=O (stereo not drawn) | 2.82 | 8.8 | 1.54 | 3.39 | 1.47 | 3.93 | 2.73 | 8.97 | 1.66 | 3.36 | 2.51 | 12.6 µM | 2.83 | 8.85 µM | 1.71 | 3.79 | 1.72 | 3.94 | – | –
2 | Cc1nc2sccn2c1-c1csc(Nc2cccc(Cl)c2C)n1 | 3.05 | > 100 | 6.5 | 20.6 | 10.3 | > 100 | 21.2 | > 100 | 9.62 | 79.7 | 6.06 | > 100 µM | 5.84 | 47.1 µM | 3.58 | 20.3 | – | – | 3.46 | 53.1
3 | COC(=O)[C@]12CCC(C)[C@H](C)[C@H]1C1=CCC3[C@@]4(C)CC[C@H](OC(C)=O)C(C)(C)C4CC[C@@]3(C)C1(C)C(O)C2 (stereo partly drawn) | – | > 100 | – | > 100 | – | > 100 | – | > 100 | – | > 100 | – | > 100 µM | – | > 100 µM | – | > 100 | – | – | – | > 100
4 | C/C(=N\N(c1ccccc1)c1ccccc1)c1c(O)cc(C)oc1=O | – | > 100 | – | > 100 | – | > 100 | – | > 100 | – | > 100 | – | > 100 µM | – | > 100 µM | – | > 100 | – | – | – | > 100
5 | Cc1cc(S(=O)(=O)NC#N)c(S/C(=N\Nc2ccc([N+](=O)[O-])cc2)c2ccc(Cl)cc2)cc1Cl | 20.9 | 75 | 30.1 | > 100 | 41.6 | > 100 | 17.9 | 57.6 | 39.6 | > 100 | > 100 | > 100 µM | 31.7 | > 100 µM | 26.7 | > 100 | 3.89 | 42.6 | – | –
6 | Cc1c(C(=O)NCCN2CCOCC2)cn2ncnc(Oc3ccc(NC(=O)Nc4ccc(Cl)c(C(F)(F)F)c4)cc3)c12 | 2.37 | 5.61 | 0.601 | 1.94 | 1.99 | 3.92 | – | – | 1.67 | 3.33 | – | – | 3.1 | > 100 µM | 1.16 | 2.8 | 2.02 | 6.38 | 0.339 | 2.26
7 | Cc1cc(Cl)ccc1Nc1nc(C(F)(F)F)ccc1C(=O)N/N=C/c1ccc([N+](=O)[O-])cc1 | 0.602 | > 20 | 1.16 | – | 3.35 | > 35.7 | 2.16 | 7.27 | 3.09 | > 40.9 | 2.92 | > 100 µM | 1.15 | – | 2.28 | 7.45 | 2.39 | 11.6 | – | –
8 | C=C1C(=O)O[C@H]2[C@H]1CC/C(COC(=O)c1cc3cc(Cl)ccc3[nH]1)=C\CC[C@@]1(C)O[C@@H]21 | 1.33 | 2.72 | 0.813 | 2.08 | 2.22 | 5.88 | 10.2 | 21.8 | 1.51 | 2.91 | 1.7 | 3.57 µM | 1.34 | 3.32 µM | 1.72 | 3.53 | – | – | 0.776 | 3.61
9 | COC(=O)C(CC(=O)Nc1ccc(C)cc1)C(=O)C(=O)Nc1ccccc1C(C)C (stereo not drawn) | – | > 100 | – | > 100 | – | > 100 | – | > 100 | – | > 100 | – | > 100 µM | – | > 100 µM | – | > 100 | – | – | – | > 100
10 | CN(C)CC1CCC/C1=N\O (stereo not drawn) | – | > 100 | – | > 100 | – | > 100 | – | > 100 | – | > 100 | – | > 100 µM | – | > 100 µM | – | > 100 | – | – | – | > 100
11 | COC(=O)c1ccccc1NC(=O)C(=O)NNC(=O)c1ccncc1 | – | > 100 | – | > 100 | – | > 100 | – | > 100 | – | > 100 | – | > 100 µM | – | > 100 µM | – | > 100 | – | – | – | > 100
12 | OC1(c2ccccc2)OC(C#Cc2ccccc2)(c2ccccc2)c2ccccc21 (stereo not drawn) | – | 5.85 | – | 11.2 | – | 28.8 | – | 5.04 | – | 13.5 | – | 10.2 µM | – | 5.87 µM | – | 17.7 | – | – | – | 9.39
13 | COc1ccc2c(c1)/C(=C\c1c(Cl)[nH]c3ccc(OC)cc13)C(=O)N2 | 41.8 | > 100 | 25.8 | 54.3 | 32.6 | 95.2 | 41.9 | > 100 | 43.7 | > 100 | – | – | 34.1 | > 100 µM | 50.7 | > 100 | 13 | 32 | – | –
14 | N#CCCN(CCC#N)c1ccc(C(Sc2ccccc2)C(NC(=O)c2cc([N+](=O)[O-])ccc2Cl)C(=O)Sc2ccccc2)cc1 (stereo not drawn) | 3.92 | 15.7 | – | 5.71 | 3.87 | 12 | 7.8 | 13.2 | – | 3.95 | – | 4.54 µM and 6.19 µM | 1.63 | 4.95 µM and 3.69 µM | – | 16.8 | – | – | – | 3.9
15 | Nc1ccccc1C#C/C=C\C#Cc1ccccc1[N+](=O)[O-] | – | – | 2.28 | 15.7 | 17.5 | 48.6 | 9.26 | 60.9 | 12.3 | 43.2 | 3.18 | 13.7 µM | 4.83 | 32.9 µM | 3.59 | 83.1 | 34.6 | > 100 | 0.289 | 5.54
16 | NC(N)=NCCC1OC(=O)C2=C1c1c(O)ccc3nccc(c13)O2 (stereo not drawn) | – | – | > 100 | > 100 | > 100 | > 100 | > 100 | > 100 | > 100 | > 100 | > 100 | > 100 µM | > 100 | > 100 µM | > 100 | > 100 | 95.1 | > 100 | > 100 | > 100
